18 compounds from patent US9617263B2, “Phenyl-triazolo-pyridine compounds” (Eli Lilly and Company, priority 2014, dated 2017) can be followed below.

Each structure is given as a SMILES string.

One test has as its target hGPR40 (Homo sapiens, UniProt O14842). Put plainly: Calcium Flux Primary Assay (FLIPR, Calcium 4 Dye). The format is cell-based. Further details: expressed in transfected cells; host or cells: HEK293. To be noted: HEK293, HEK293 cells over expressing human GPR40; vs natural ligand linoleic acid; read-out: efficacy (maximal response compared to linoleic acid). As for the experimental part: HEK293 cells over expressing the human GPR40 cDNA maintained in Dulbecco's modified Eagle's medium with F12 medium in 3:1 ratio supplemented with 10% FBS and 800 μg/ml geneticin at 37° C. and 5% CO2 are employed for the study. Agonist assays are performed using a Calcium 4 Dye assay kit (Molecular Devices) in the presence or absence of 0.1% fatty acid free BSA in the assay buffer (1×HBSS (Hank's Balanced Salt Solution) & 20 mM HEPES (4-(2-hydroxyethyl)-1-piperazineethanesulfonic acid). Receptor activation is measured as an increase in intracellular calcium using the Fluorometric Imaging Plate Reader (FLIPR). Maximum change in fluorescence over the base line is used to determine the agonist response. The EC50 value of the compound is calculated using Excel Fit software (version 4; IDBS) by plotting concentration vs relative fluorescence units (RFUs).

The test system of another test is Male Balb/c mice. Description: Intraperitoneal glucose tolerance test (IPGTT). The format is in vivo, mouse. To be noted: 30 and 60 minute time points; Example 1 at 10, 30, 100 mg/kg oral; positive control 10 mg/kg. As for the experimental part: To examine the ability of Examples 1 to 20 to activate GPR40 in-vivo resulting in desired glucose lowering efficacy, i.e. reduction in plasma glucose levels, an intraperitoneal glucose tolerance test (ipGTT) study is completed, and the data is shown for the compound tested below.
Male Balb/c (Albino mice) mice (8-9 weeks of age) are single housed, and fed with normal rodent chow diet and water ad libitum. Animals are weighed; randomized by body weight; and their daily body weights are recorded. Animals are dosed daily using a formulation carrying methylcellulose and tween-80. On the night before the study, animals are fasted. In the morning, animals are dosed orally with compound or vehicle alone 60 minutes prior to the glucose tolerance test (glucose 2 g/kg, i.p.). Blood glucose levels are determined from tail bleeds taken at 0, 3, 7, 15, 30, and 60 min after glucose challenge. […] Percent lowering in glucose is calculated from the AUC data of the compound with respect to the AUC of vehicle group. The test compound is orally administered at 0.3, 1.0, 3.0, 10, 30, or 100 mg/kg, and a positive control (3-[4-(2-methyl-benzyloxy)-phenyl]-hex-4-ynoic acid, see WO2005086661 (TAK875).) is administered at 10 mg/kg. […] Glucose levels are lowered at the 30, and 60 minute time points for the positive control.

The subject of another test is Zucker fa/fa rats. Put plainly: Acute oral glucose tolerance test (OGTT). In kind it is in vivo, rat. Particulars: oral; Example 1 at 1, 3 and 10 mg/kg, TAK875 at 1 mg/kg; p<0.05. As for the experimental part: OGTTs are performed in Zucker fa/fa rats, a rodent model of insulin resistance, after 1 and 21 days of orally administered material at 1.0, 3.0 and 10 mg/kg. TAK875 at 1 mg/kg served as the positive control. The OGTTs are performed one hour post compound administration with blood samples taken for determination of glucose and insulin levels at 10, 20, 40, 60, and 120 minutes post glucose administration.

hGPR40, sequence (O14842 whole entry): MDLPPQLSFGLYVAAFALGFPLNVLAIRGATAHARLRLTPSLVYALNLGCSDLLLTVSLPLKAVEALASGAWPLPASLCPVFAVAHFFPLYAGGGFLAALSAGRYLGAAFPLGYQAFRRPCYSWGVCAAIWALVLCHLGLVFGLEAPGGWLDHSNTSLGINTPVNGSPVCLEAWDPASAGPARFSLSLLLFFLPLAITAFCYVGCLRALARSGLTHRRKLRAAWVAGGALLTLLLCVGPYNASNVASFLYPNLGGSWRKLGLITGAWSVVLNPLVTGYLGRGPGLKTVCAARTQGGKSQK

For the compound `CC#C[C@@H](CC(=O)O)c1ccc(OCc2cc(-c3ccc(OC)cc3)cn3ncnc23)cc1` [Example 2, (S)-3-{4-[6-(4-Methoxy-phenyl)-[1,2,4]triazolo[1,5-a]pyridin-8-ylmethoxy]-phenyl}-hex-4-ynoic acid], the Emax at hGPR40 is > 35%. The same measure, in the same setting: the figure for `CC#C[C@@H](CC(=O)O)c1ccc(OCc2cc(-c3c(C)cccc3F)cn3ncnc23)cc1` [Example 3, (S)-3-{4-[6-(2-Fluoro-6-methyl-phenyl)-[1,2,4]triazolo[1,5-a]pyridin-8-ylmethoxy]-phenyl}-hex-4-ynoic acid] is > 35%; for `CC#C[C@@H](CC(=O)O)c1ccc(OCc2cc(-c3ccc(OC)cc3C)cn3ncnc23)cc1` [Example 4, (S)-3-{4-[6-(4-Methoxy-2-methyl-phenyl)-[1,2,4]triazolo[1,5-a]pyridin-8-ylmethoxy]-phenyl}-hex-4-ynoic acid] it is > 35%. On the same count and under the same terms, the value for `CC#C[C@@H](CC(=O)O)c1ccc(OCc2cc(-c3c(C)cc(OC)cc3C)cn3ncnc23)cc1` [Example 5, (S)-3-{4-[6-(4-Methoxy-2,6-dimethyl-phenyl)-[1,2,4]triazolo[1,5-a]pyridin-8-ylmethoxy]-phenyl}-hex-4-ynoic acid] was > 35%; that for `CC#C[C@@H](CC(=O)O)c1ccc(OCc2cc(-c3cc(OC)ccc3F)cn3ncnc23)cc1` [Example 6] was > 35%.

For `CC#C[C@@H](CC(=O)O)c1ccc(OCc2cc(-c3ccc(OCCCS(C)(=O)=O)cc3C)cn3ncnc23)cc1` [Example 7, (S)-3-(4-{6-[4-(3-Methanesulfonyl-propoxy)-2-methyl-phenyl]-[1,2,4]triazolo[1,5-a]pyridin-8-ylmethoxy}-phenyl)-hex-4-ynoic acid], the Emax on hGPR40 was > 35%.

For `CC#C[C@@H](CC(=O)O)c1ccc(OCc2cc(-c3ccc(OCCC(C)(C)O)cc3C)cn3ncnc23)cc1` [Example 8, (S)-3-(4-{6-[4-(3-Hydroxy-3-methyl-butoxy)-2-methyl-phenyl]-[1,2,4]triazolo[1,5-a]pyridin-8-ylmethoxy}-phenyl)-hex-4-ynoic acid], on hGPR40, the Emax is > 35%. The same measure, in the same setting: the value for `CC#C[C@@H](CC(=O)O)c1ccc(OCc2cc(-c3ccc(C(C)C)cc3)cn3ncnc23)cc1` [Example 9, (S)-3-{4-[6-(4-Isopropyl-phenyl)-[1,2,4]triazolo[1,5-a]pyridin-8-ylmethoxy]-phenyl}-hex-4-ynoic acid] was > 35%; that for `CC#C[C@@H](CC(=O)O)c1ccc(OCc2cc(-c3c(C)cccc3C)cn3ncnc23)cc1` [Example 11, (S)-3-{4-[6-(2,6-Dimethyl-phenyl)-[1,2,4]triazolo[1,5-a]pyridin-8-ylmethoxy]-phenyl}-hex-4-ynoic acid] was > 35%. As to `CC#C[C@@H](CC(=O)O)c1ccc(OCc2cc(-c3cc(Cl)ccc3C)cn3ncnc23)cc1` [Example 12], the Emax at hGPR40 is > 35%. With `CC#C[C@@H](CC(=O)O)c1ccc(OCc2cc(-c3ccc(C#N)cc3)cn3ncnc23)cc1` [Example 13, (S)-3-{4-[6-(4-Cyano-phenyl)-[1,2,4]triazolo[1,5-a]pyridin-8-ylmethoxy]-phenyl}-hex-4-ynoic acid], at hGPR40, the Emax was > 35%.

As for `CC#C[C@@H](CC(=O)O)c1ccc(OCc2cc(-c3ccc(C(F)F)cc3)cn3ncnc23)cc1` [Example 15, (S)-3-{4-[6-(4-Difluoromethyl-phenyl)-[1,2,4]triazolo[1,5-a]pyridin-8-ylmethoxy]-phenyl}-hex-4-ynoic acid], the Emax at hGPR40 is > 35%. Turning to `CC#C[C@@H](CC(=O)O)c1ccc(OCc2cc(-c3ccc(OCC#N)cc3C)cn3ncnc23)cc1` [Example 16, (S)-3-{4-[6-(4-Cyanomethoxy-2-methyl-phenyl)-[1,2,4]triazolo[1,5-a]pyridin-8-ylmethoxy]-phenyl}-hex-4-ynoic acid], the Emax on hGPR40 was > 35%. The same measure, in the same setting: the value for `CC#C[C@@H](CC(=O)O)c1ccc(OCc2cc(-c3ccc(S(C)(=O)=O)cc3)cn3ncnc23)cc1` [Example 17] was > 35%. Still for that read-out and setting: the figure for `CC#C[C@@H](CC(=O)O)c1ccc(OCc2cc(-c3ccc(S(N)(=O)=O)cc3C)cn3ncnc23)cc1` [Example 18, (S)-3-{4-[6-(2-Methyl-4-sulfamoyl-phenyl)-[1,2,4]triazolo[1,5-a]pyridin-8-ylmethoxy]-phenyl}-hex-4-ynoic acid] is > 35%; for `CC#C[C@@H](CC(=O)O)c1ccc(OCc2cc(-c3ccc(C(C)(C)C#N)cc3)cn3ncnc23)cc1` [Example 19, (S)-3-(4-{6-[4-(Cyano-dimethyl-methyl)-phenyl]-[1,2,4]triazolo[1,5-a]pyridin-8-ylmethoxy}-phenyl)-hex-4-ynoic acid] it is > 35%. In the case of `CC#C[C@@H](CC(=O)O)c1ccc(OCc2cc(-c3ccc(OC(F)F)cc3C)cn3ncnc23)cc1` [Example 20, (S)-3-{4-[6-(4-Difluoromethoxy-2-methyl-phenyl)-[1,2,4]triazolo[1,5-a]pyridin-8-ylmethoxy]-phenyl}-hex-4-ynoic acid], the Emax on hGPR40 is > 35%. Turning to `Cc1cc(OCCCS(C)(=O)=O)cc(C)c1-c1cccc(COc2ccc3c(c2)OC[C@H]3CC(=O)O)c1` [TAK875, fasiglifam, reference compound], the “Glucose levels compared to vehicle control” value with Male Balb/c mice is recorded as “lowered”. For the same compound, the “AUCs for glucose lowering” value with Zucker fa/fa rats is recorded as “statistically significant”.
